Here are results for 7 compounds from patent US20250042847A1, “SUBSTITUTED PHENYLPROPIONIC ACID DERIVATIVE AND USE THEREOF” (TUOJIE BIOTECH (SHANGHAI) CO., LTD., priority 2021, published 2025).

Structures can show the parent of a compound that is named as a salt.

One may read the IC50 as the concentration at which inhibition is half-maximal. As usually defined, the AUC is concentration integrated over time.

In data set [1] the target is Apo(a) and ApoB protein assembly (Homo sapiens (Human), UniProt P08519). Kind of data set: Test for activity of compounds in inhibiting Lp(a) assembly (double antibody ELISA). It is filed as biochemical. The following applies: plasma from human transgenic hApo(a) and hApoB mice; 37° C., 2 h; ELISA absorbance at 450 nm. On the procedure: The disclosure used a double antibody ELISA method to measure the efficiency of Apo(a) and ApoB protein assembly. The antibodies were ApoB-Capture antibody (Mabtech) and Apo(a)-Detector antibody (Abcam); the test samples were plasma from human transgenic hApo(a) and hApoB mice and were diluted 500-fold before use.
Experimental steps: Equal amounts of Apo(a) and ApoB serum were mixed with a serially diluted test compound (highest concentration at 100 nM, serially diluted 3-fold). The mixture was incubated in a 37° C. incubator for 2 h. The reaction was then terminated by adding 6-aminocaproic acid (EACA, purchased from Sigma) to a final concentration of 150 mM. The post-reaction solution was then added to an ELISA plate pre-coated with ApoB-Capture antibody, and the plate was incubated at room temperature for 2 h. Then the plate was washed 4 times with wash buffer; biotinylated Apo(a)-Detector antibody was added, and the plate was incubated at room temperature for 1 h. The plate was washed, and the chromogenic substrate 3,3′,5,5′-tetramethylbenzidine (TMB, purchased from Abcam) solution was added. After the plate was incubated at room temperature for 15 min, a reaction stop solution was added. Immediately after the solution was mixed well, the absorbance at 450 nm was measured using a microplate reader. Finally, data analysis and IC50 calculation were performed using GraphPad Prism 9 software.
The 0% inhibition rate for Apo(a) and ApoB protein assembly corresponds to the OD value where the compound concentration was 0 (1% DMSO); the 100% inhibition rate for Apo(a) and ApoB protein assembly corresponds to the OD value where only ApoB protein solution (a dilution of plasma from hApoB mice) was added.
A general note: In an ELISA, binding on a coated surface is turned into a signal by an enzyme label.

A short description of data set [2]: High-dose single-dose tolerance experiment on mice. It is filed as in vivo, C57/6J mice. On the procedure: C57/6J mice were used as test animals and administered a high dose of the compound of the disclosure by oral gavage. Clinical observations were carried out on the mice, and the safety of the compound of the disclosure was evaluated.
Experimental method: 8 male C57/6J mice were numbered 1-8 and weighed. The mice were fasted for 4 h before the experiment and weighed after the fast (0 h). Six mice with body weights closer to the average were selected and divided into 2 groups of 3.
The first group (G1) was administered reference 1, and the second group (G2) was administered the compound of the disclosure, Example 6. In both groups G1 and G2, the compounds were administrated by oral gavage at a dose of 1000 mg/kg, with normal saline as a vehicle. Clinical observations were carried out on the mice in the experimental group at 15 min, 30 min, 1 h, 2 h, 4 h, 6 h, and 24 h post-dose, and both groups were given food at 2 h post-dose.

The nature of data set [3]: In vivo pharmacokinetic experiment on cynomolgus monkeys. To be noted: intragastric, 50 mg/kg. The procedure:
Cynomolgus monkeys were used as test animals. After intragastric administration of the compound of the disclosure to cynomolgus monkeys, plasma concentrations at different time points were determined by LC/MS/MS. The pharmacokinetic behavior of the compound of the disclosure in cynomolgus monkeys was studied and its pharmacokinetic profile was evaluated.
Test Animals: 2 Healthy Cynomolgus Monkeys Aged 24-36 Months Per Group (One Male and One Female)
Compound solution preparation: Certain amounts of compound were weighed out and normal saline was added to form 10 mg/mL (reference 1) and 3 mg/mL (compound 6) colorless clear solutions.
Administration: Cynomolgus monkeys were fasted overnight and then intragastrically dosed. Reference 1 was administered at a dose of 50 mg/kg, and compound 6 was administered at a dose of 15 mg/kg.
Procedure: Cynomolgus monkeys were intragastrically administered the compound of the disclosure. Blood samples of about 0.5 mL were collected from the peripheral vein at 0.25, 0.5, 1, 2, 4, 6, 8, and 24 h post-dose and placed into test tubes containing EDTA-K2. The blood samples were centrifuged at about 4° C. at 2000 rpm for 10 min to separate plasma, and the plasma was stored at −75° C.
(§1) Determination of the content of the test compound in cynomolgus monkey plasma at these different blood collection time points: Samples of 33 μL (30 μL of plasma and 3 μL of blank) of the cynomolgus monkey plasma collected at these time points post-dose were taken and added to 18 μL of a 6% perchloric acid solution. After 30 s of vortexing, the mixture was centrifuged at a temperature of 4° C. at 3900 rpm for 15 min, and 200 μL of alkalinized (the pH was adjusted to 10-11 with ammonia water) acetonitrile solution containing dexamethasone as an internal standard was then added to precipitate protein. After 30 s of vortexing, the mixture was centrifuged at 4° C. at 3900 rpm for 15 min. The supernatants of the plasma samples were taken and 3-fold diluted with water, and 8 μL of dilution was taken for LC/MS/MS analysis.
(§2) After plasma concentrations were determined by LC/MS/MS analysis, pharmacokinetic parameters were calculated using WinNonlin 6.1 software and a non-compartmental model method.

Data set [4] is described as follows: In vivo pharmacokinetic experiment on beagles. The following applies: male, beagle, dog, plasma, po, intragastric, 10 mg/kg. On the procedure: Beagles were used as test animals. After intragastric administration of the compound of the disclosure to beagles, plasma concentrations at different time points were determined by LC/MS/MS. The pharmacokinetic behavior of the compound of the disclosure in beagles was studied and its pharmacokinetic profile was evaluated.
Test Animals: 2 Healthy Male Beagles Aged 8-36 Months Per Group
Compound solution preparation: A certain amount of compound was weighed out and normal saline was added to form a 2 mg/mL colorless clear solution.
Administration: Beagles were fasted overnight and then intragastrically dosed. Reference 1 and compound 6 were both administered at a dose of 10 mg/kg.
Procedure: Beagles were intragastrically administered the compound of the disclosure. Blood samples of about 0.6 mL were collected from the peripheral vein at 0.25, 0.5, 1, 2, 4, 6, 8, and 24 h post-dose and placed into test tubes containing EDTA-K2. The blood samples were centrifuged at about 4° C. at 2000 rpm for 10 min to separate plasma, and the plasma was stored at −75° C.
as §1, with “beagle” for “cynomolgus monkey”
as §2

Sequence of Apo(a) and ApoB protein assembly (P08519 20-2040): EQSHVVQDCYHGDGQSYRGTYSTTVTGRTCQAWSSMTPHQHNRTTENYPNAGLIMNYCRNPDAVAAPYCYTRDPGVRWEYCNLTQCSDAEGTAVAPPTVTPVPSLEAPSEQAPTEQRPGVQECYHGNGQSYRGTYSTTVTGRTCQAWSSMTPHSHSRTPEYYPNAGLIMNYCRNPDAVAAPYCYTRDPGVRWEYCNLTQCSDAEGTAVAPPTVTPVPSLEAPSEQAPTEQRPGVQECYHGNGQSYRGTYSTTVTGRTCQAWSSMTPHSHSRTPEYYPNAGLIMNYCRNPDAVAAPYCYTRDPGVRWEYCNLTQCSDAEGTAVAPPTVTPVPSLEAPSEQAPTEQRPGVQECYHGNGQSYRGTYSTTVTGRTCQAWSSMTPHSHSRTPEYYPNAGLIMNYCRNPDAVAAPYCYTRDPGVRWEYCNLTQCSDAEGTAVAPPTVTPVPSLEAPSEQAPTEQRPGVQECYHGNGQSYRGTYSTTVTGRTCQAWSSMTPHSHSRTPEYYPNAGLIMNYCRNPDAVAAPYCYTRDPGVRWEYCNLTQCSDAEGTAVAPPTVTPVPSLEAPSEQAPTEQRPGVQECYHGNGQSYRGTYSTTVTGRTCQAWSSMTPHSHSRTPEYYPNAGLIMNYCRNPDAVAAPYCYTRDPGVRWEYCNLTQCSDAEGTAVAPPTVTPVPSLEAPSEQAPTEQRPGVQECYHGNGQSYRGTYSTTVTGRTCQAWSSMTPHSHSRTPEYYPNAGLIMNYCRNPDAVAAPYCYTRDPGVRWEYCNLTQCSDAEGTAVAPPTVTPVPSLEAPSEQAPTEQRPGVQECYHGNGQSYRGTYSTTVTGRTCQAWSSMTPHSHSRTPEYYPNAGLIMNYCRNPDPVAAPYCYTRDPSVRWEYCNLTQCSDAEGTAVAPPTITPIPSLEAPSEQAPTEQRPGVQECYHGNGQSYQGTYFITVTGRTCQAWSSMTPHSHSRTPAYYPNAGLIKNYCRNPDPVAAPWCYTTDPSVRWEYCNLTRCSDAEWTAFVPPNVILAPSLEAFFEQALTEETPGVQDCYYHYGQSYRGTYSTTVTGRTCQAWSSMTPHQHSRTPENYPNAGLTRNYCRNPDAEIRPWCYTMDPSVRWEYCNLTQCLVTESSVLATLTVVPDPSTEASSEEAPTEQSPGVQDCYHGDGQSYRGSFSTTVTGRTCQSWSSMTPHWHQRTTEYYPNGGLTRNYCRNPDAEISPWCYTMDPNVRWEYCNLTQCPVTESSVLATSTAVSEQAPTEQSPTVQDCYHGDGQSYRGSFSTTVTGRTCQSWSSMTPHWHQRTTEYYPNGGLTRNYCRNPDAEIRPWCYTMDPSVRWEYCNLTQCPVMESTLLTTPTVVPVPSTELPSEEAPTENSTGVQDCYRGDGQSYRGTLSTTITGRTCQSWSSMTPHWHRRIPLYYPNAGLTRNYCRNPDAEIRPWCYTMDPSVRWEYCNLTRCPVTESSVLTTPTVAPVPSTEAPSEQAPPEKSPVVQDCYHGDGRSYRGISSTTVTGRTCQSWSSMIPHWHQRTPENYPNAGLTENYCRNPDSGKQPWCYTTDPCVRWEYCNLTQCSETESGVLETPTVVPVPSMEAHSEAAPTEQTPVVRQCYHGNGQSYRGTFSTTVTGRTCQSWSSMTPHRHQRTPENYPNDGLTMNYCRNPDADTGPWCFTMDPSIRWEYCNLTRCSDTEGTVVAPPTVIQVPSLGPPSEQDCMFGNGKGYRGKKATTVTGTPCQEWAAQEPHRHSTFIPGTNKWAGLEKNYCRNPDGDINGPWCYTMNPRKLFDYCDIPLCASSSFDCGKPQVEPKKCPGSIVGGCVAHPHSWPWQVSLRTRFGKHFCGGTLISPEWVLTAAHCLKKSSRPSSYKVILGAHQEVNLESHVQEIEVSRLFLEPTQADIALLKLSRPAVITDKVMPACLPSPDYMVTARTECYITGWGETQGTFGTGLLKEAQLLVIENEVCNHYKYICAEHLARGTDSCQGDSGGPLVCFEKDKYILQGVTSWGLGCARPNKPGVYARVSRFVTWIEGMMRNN

Take `O=C(O)[C@@H](Cc1cccc(CN(CCN(Cc2cccc(C[C@H](C(=O)O)[C@H]3CCNC3)c2)Cc2cccc(C[C@H](C(=O)O)[C@H]3CCNC3)c2)Cc2cccc(C[C@H](C(=O)O)[C@H]3CCNC3)c2)c1)[C@H]1CCNC1` [Compound 4, (2S)-3-{3-[({2-[Bis({3-[(2S)-2-carboxy-2-[(3R)-pyrrolidin-3-yl]ethyl]phenyl}methyl)amino]ethyl}({3-[(2S)-2-carboxy-2-[(3R)-pyrrolidin-3-yl]ethyl]phenyl}methyl)amino)methyl]phenyl}-2-[(3R)-pyrrolidin-3-yl]propanoic acid]: in data set [1], inhibition was half-maximal at 0.85 nM (IC50).
In data set [1], `O=C(O)C(F)(Cc1cccc(CN(Cc2cccc(CC(F)(C(=O)O)[C@H]3CCNC3)c2)Cc2cccc(CC(F)(C(=O)O)[C@H]3CCNC3)c2)c1)[C@H]1CCNC1` (stereo partly drawn) [Compound 3, 3-[3-({Bis[(3-{2-carboxy-2-fluoro-2-[(3S)-pyrrolidin-3-yl]ethyl}phenyl)methyl]amino}methyl)phenyl]-2-fluoro-2-[(3S)-pyrrolidin-3-yl]propanoic acid] returned an IC50 of 1.4 nM.
Turning to `O=C(O)[C@@H](Cc1cc(F)cc(CN(Cc2cc(F)cc(C[C@H](C(=O)O)[C@H]3CCNC3)c2)Cc2cc(F)cc(C[C@H](C(=O)O)[C@H]3CCNC3)c2)c1)[C@H]1CCNC1` [Compound 1, (2S)-3-(3-{[Bis({3-[(2S)-2-carboxy-2-[(3R)-pyrrolidin-3-yl]ethyl]-5-fluorophenyl}methyl)amino]methyl}-5-fluorophenyl)-2-[(3R)-pyrrolidin-3-yl]propanoic acid], the IC50 in data set [1] stood at 0.75 nM.
`O=C(O)[C@@H](Cc1cccc(CN(Cc2cccc(C[C@H](C(=O)O)[C@H]3CCNC3)c2)Cc2cccc(C[C@H](C(=O)O)[C@H]3CCNC3)c2)c1)[C@H]1CCNC1` [Reference 1, reference compound]: the “body weight trend of the mice” value in data set [2] (7 d after high-dose (1000 mg/kg) administration, conclusion in words) is on record as “significant downward trend”. In addition, in data set [2] (male C57/6J mice, single oral gavage 1000 mg/kg, mean, Day 0), the “Mouse body weight, Day 0” value was 25.87 g. The “Mouse body weight, Day 3” value in data set [2] (male C57/6J mice, single oral gavage 1000 mg/kg, mean, Day 3) was 25.70 g. Further, the “Mouse body weight, Day 5” value in data set [2] (male C57/6J mice, single oral gavage 1000 mg/kg, mean, Day 5) is listed as 25.10 g. Besides, the “Mouse body weight, Day 7” value in data set [2] (male C57/6J mice, single oral gavage 1000 mg/kg, mean, Day 7) was found to be 24.53 g. The AUC came to 22.2 µg·h/mL in data set [3] (both sexes, cynomolgus monkey, plasma, po, read-out: Area under curve AUC) and 22.9 µg·h/mL in data set [4] (read-out: Area under curve AUC). The half-life is 17.7 h in data set [3] (both sexes, cynomolgus monkey, plasma, po, read-out: Half-life T1/2 (converted)) and 20.7 h in data set [4] (read-out: Half-life T1/2 (converted)). The Cmax in data set [3] (both sexes, cynomolgus monkey, plasma, po, read-out: Maximum plasma concentration Cmax) was found to be 2.19 µg/mL; in data set [4] (read-out: Maximum plasma concentration Cmax), 1.63 µg/mL. In addition, the Unit-dose area under curve AUC/D in data set [3] was determined as 443 ng·h/mL per mg/kg.
`O=C(O)[C@@H](Cc1cccc(CN(CCNc2cccc(C[C@H](C(=O)O)[C@H]3CCNC3)c2)Cc2cccc(C[C@H](C(=O)O)[C@H]3CCNC3)c2)c1)[C@H]1CCNC1` [Compound 7, (2S)-3-[3-({[2-({3-[(2S)-2-Carboxy-2-[(3R)-pyrrolidin-3-yl]ethyl]phenyl}amino)ethyl]({3-[(2S)-2-carboxy-2-[(3R)-pyrrolidin-3-yl]ethyl]phenyl}methyl)amino}methyl)phenyl]-2-[(3R)-pyrrolidin-3-yl]propanoic acid pentahydrochloride] returned an IC50 in data set [1] of 0.76 nM.
On the same count and under the same terms, the figure for `O=C(O)[C@@H](Cc1cccc(CNCCN(Cc2cccc(C[C@H](C(=O)O)[C@H]3CCNC3)c2)Cc2cccc(C[C@H](C(=O)O)[C@H]3CCNC3)c2)c1)[C@H]1CCNC1` [Compound 5, (2S)-3-(3-{[({3-[(2S)-2-Carboxy-2-[(3R)-pyrrolidin-3-yl]ethyl]phenyl}methyl)({2-[({3-[(2S)-2-carboxy-2-[(3R)-pyrrolidin-3-yl]ethyl]phenyl}methyl)amino]ethyl})amino]methyl}phenyl)-2-[(3R)-pyrrolidin-3-yl]propanoic acid] is 0.78 nM.
Compound `O=C(O)[C@@H](Cc1cccc(CN(Cc2cccc(C[C@H](C(=O)O)C3CCNCC3)c2)Cc2cccc(C[C@H](C(=O)O)C3CCNCC3)c2)c1)C1CCNCC1` [Compound 2, (2S)-3-(3-{[Bis({3-[(2S)-2-carboxy-2-(piperidin-4-yl)ethyl]phenyl}methyl)amino]methyl}phenyl)-2-(piperidin-4-yl)propanoic acid] had an IC50 in data set [1] of 1.7 nM.
